Results as given in patent US11414426B2, “Treatment of skin disorders” (PIQUR THERAPEUTICS AG, priority 2017, dated 2022).
Marks after values point to notes of the source that are not given here.

What was measured:
[1] = tested on: pS6 S235/S236 in A2058 cells; test: In-cell Western blot, pS6 S235/S236; format: cell-based; conditions: 1 hour treatment, normalized to α-tubulin
Procedure: (§1) Cells are fixed with 4% paraformaldehyde for 30 minutes at room temperature, washed 2 times with 1% BSA in PBS, permeabilized with 0.1% Triton X-100 in PBS/1% BSA for 30 minutes at room temperature and blocked with 5% goat serum in PBS/1% BSA/0.1% Triton X-100 for 30 minutes at room temperature. […] Cells are washed 3 times 5 minutes with PBS/1% BSA/0.1% triton and plate scanned with the Odyssey Infrared Scanning system using both 700 and 800 nm channels. […] To correct for background staining in the data analysis wells are treated only with secondary antibodies.
(§2) For data analysis the mean background signal from channel 700 nm and 800 nm are subtracted from each signal in channel 700 nm and 800 nm, respectively.
(§3) IC50 values of each compound are determined by plotting the normalized pPBK S473 and pS6 S235/S236 signals, respectively, versus the compound concentrations (in logarithmic scale) and then by fitting a sigmoidal dose-response curve with variable slope to the data using GraphPad™ Prism.

pPKB S473 in A2058 cells = test: In-cell Western blot, pPKB S473; format: cell-based; conditions: Homo sapiens, A2058, 1 h, 1 hour treatment, normalized to α-tubulin
Procedure: as §1, §2, §3

[2] = Ex vivo pig skin penetration, formulations in 80% SBECD; format: in vitro ADME
From the text: The control formulation Aldara (5% imiquimod) was applied to detect variations in skin permeability (local variability in the same animal and inter-subject variability). The stratum corneum was removed by tape stripping to avoid contamination during the biopsy extraction. […] One biopsy was taken from each control site. Additionally, 5 blank samples were taken.

[3] = Ex vivo pig skin PK profile, propylene glycol formulations; format: in vitro ADME
From the text: Excised pig skin was placed in a climate chamber to control temperature and humidity. […] Before biopsies were taken the stratum corneum was removed by tape stripping and biopsies consisted of the remaining epidermis and entire dermis.

[4] = In vivo pig skin penetration; conditions: living pig, single topical application, propylene glycol preparations
[5] = molecular target: T1, N-terminally GST-tagged mTOR (truncated version: amino acids 1360-2549) (Homo sapiens, UniProt P42345); test: In vitro mTOR binding assay (LanthaScreen TR-FRET); conditions: 10 nM Tracer 314, 30 min RT
T1 construct: truncated version: amino acids 1360-2549; purchased Life Technologies PR8683B
T1 sequence (P42345 1360-2549): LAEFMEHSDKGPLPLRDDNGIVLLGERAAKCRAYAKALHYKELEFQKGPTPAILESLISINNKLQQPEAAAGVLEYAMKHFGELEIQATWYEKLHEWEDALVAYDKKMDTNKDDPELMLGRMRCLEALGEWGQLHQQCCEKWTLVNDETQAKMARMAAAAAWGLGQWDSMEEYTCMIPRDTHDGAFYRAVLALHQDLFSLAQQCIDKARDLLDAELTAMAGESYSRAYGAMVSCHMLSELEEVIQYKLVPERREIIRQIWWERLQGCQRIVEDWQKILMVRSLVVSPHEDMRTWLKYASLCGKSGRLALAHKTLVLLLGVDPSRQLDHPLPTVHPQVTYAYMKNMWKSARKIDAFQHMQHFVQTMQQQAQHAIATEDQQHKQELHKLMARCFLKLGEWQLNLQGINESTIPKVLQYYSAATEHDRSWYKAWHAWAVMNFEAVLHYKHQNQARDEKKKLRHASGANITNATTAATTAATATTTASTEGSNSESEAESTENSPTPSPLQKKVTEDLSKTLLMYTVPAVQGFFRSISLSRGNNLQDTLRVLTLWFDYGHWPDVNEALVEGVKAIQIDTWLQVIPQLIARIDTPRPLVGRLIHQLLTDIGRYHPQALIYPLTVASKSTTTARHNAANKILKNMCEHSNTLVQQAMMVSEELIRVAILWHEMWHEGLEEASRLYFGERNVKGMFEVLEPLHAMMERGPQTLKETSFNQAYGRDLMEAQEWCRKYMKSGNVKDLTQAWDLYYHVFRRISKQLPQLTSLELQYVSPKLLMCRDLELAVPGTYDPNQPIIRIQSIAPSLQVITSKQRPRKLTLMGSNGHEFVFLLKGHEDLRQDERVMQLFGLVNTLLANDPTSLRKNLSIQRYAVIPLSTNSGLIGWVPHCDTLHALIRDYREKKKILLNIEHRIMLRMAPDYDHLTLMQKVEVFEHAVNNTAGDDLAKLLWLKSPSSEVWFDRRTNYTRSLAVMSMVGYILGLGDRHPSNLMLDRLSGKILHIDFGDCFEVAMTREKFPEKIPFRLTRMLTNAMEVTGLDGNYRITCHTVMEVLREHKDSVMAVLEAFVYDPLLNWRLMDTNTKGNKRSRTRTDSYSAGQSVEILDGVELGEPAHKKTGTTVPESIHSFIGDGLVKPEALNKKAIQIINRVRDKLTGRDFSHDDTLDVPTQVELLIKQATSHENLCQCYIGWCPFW
Procedure: In Vitro mTOR Binding Assay
A 10-point 4-fold serial dilution (highest concentration at 10 μmol/L and lowest concentration at 40 pmol/L) of each compound was tested for mTOR binding in duplicate in a 384-well plate. […] After 30 min incubation at RT, time-resolved FRET was measured with a Synergy 4 multi-mode microplate reader (Biotek Instruments) using the following settings: 100 microsecs delay before data collection, 200 microsecs time for data collection, 10 measurements per data point.
IC50 values of each compound were determined by plotting the emission ratio versus the compound concentrations (in logarithmic scale) and then by fitting a sigmoidal dose-response curve with variable slope to the data using GraphPad™ Prism.

[6] = Stress stability in propyleneglycol at 60° C. (HPLC); format: physicochemical; conditions: 1% in propyleneglycol, 72 h
Procedure: The fraction of residual test item was determined by HPLC. […] During the observation period of 72 hrs.
Equal concentrations (1%) of the test items in propyleneglycol were heated to 60° C. and the fraction of residual test item was determined by HPLC.

Question: With `Nc1cc(C(F)(F)F)c(-c2cc(N3CCOCC3)nc(N3CCOCC3)n2)cn1` [BKM 120] as the compound, how does the IC50 [1] read?
Answer: 640 nM

Question: What about the IC50 (pPKB S473 in A2058 cells) of the same compound?
Answer: 390 nM

Question: Which results are given for `Nc1cc(C(F)F)c(-c2nc(N3C4CCC3COC4)nc(N3C4CCC3COC4)n2)cn1` [Compound 3, 5-(4-(3-oxa-8-azabicyclo[3.2.1]octan-8-yl)-6-(3-oxa-8-azabicyclo[3.2.1]octan-8-yl)-1,3,5-triazin-2-yl)-4-(difluoromethyl)pyridin-2-amine]?
Answer: intrinsic penetration properties in comparison with Aldara (5% imiquimod) ([2]; ex vivo pig skin): slightly lower; penetration into pig skin (lower epidermis and dermis) ([2]; ex vivo, 1% experimental formulations, 80% SBECD): penetrated into pig skin (lower epidermis and dermis) to a significant extent; skin concentration / skin PK profile ([3]; 1% in 100% PG): comparable to 1*; drug concentrations in the lower epidermis and dermis ([3]; 1% preparations containing propylene glycol, vs Aldara): high drug concentrations in the lower epidermis and dermis; levels in epidermis and dermis after tape stripping [4]: significant levels

Question: For `C[C@H]1COCCN1c1nc(-c2cnc(N)cc2C(F)F)nc(N2CCOC[C@@H]2C)n1` [Compound 6], which IC50 [5] is on record?
Answer: 23 nM

Question: With `CO[C@H]1C[C@@H]2CC[C@@H](C)[C@@](O)(O2)C(=O)C(=O)N2CCCC[C@H]2C(=O)O[C@H]([C@H](C)C[C@@H]2CC[C@@H](O)[C@H](OC)C2)CC(=O)[C@H](C)/C=C(\C)[C@@H](O)[C@@H](OC)C(=O)[C@H](C)C[C@H](C)/C=C/C=C/C=C/1C` [Sirolimus] as the compound, how does the “degraded (fraction of test item lost, HPLC)” value [6] read?
Answer: 39%
